Like-named read-outs stand apart in the source and are kept apart here.
How the values were obtained:
[1] = target: T1, JAK3 (Homo sapiens, UniProt P52333); test: JAK3 biochemical assay (ADP-GLO Kinase Assay); details: for JAKs/HPK1 IC50 Ratio, B* / JAKs/HPK1 IC50 Ratio, N*: ratio of JAK3 IC50 to HPK1 IC50; for JAKs/HPK1 IC50 Ratio, B*: first testing facility; for JAKs/HPK1 IC50 Ratio, N*: second testing facility
T1 construct: purchased Thermo fisher PV3855
Method: Biology Example 4 JAK3 Biochemical Assay
This example used the ADP-GLO™ Kinase Assay to measure the effect of potential HPK1 inhibitor compounds on JAK3 kinase activity. An exemplary experimental setting is described below, though minor adjustments can be made in individual assays.
3. Procedures • 1. Prepare JAK3 kinase buffer • Freshly adding DTT and BSA into Buffer (Final Conc.: 40 mM Tris pH7.5; 20 mM MgCl2, 0.1 mg/ml BSA, 50 μM DTT).
• 2. Compounds Preparation • For tested compounds: compounds were diluted to 1 mM, by mixing 5 μL of 10 mM compound stocks to 45 μL DMSO. The compounds solutions were then serially diluted 3-fold for 10 doses. The top compound concentration was 1 mM (100×), DMSO concentration was 100%. • 50 nL of each of 10 doses of diluted compound were added to 384-well assay plate (Corning #4512) by ECHO. • For positive control, 50 nL of 1 mM reference compound were added to 384-well assay plate (Corning #4512) by ECHO. • For negative control: 50 nL of DMSO was transferred into 384-well assay plate as a negative control. • The assay plate was centrifuged at 1,500 rpm for 1 minute. • 3. Compounds were Transferred by ECHO Following the Layout Below: • Reference and test compounds 1-15: serial 3-fold dilution from 10 μM to 0.508 nM (10 doses); negative control is 0.78 ng JAK3, 4 μM ATP & 0.2 μg/μL poly, 1% DMSO; positive control is the top dose of the reference compound, 0.78 ng JAK3, 0.2 μg/μL Poly(E4Y1), 4 μMATP, 1% DMSO. • 4. Add 2.5 μL/well of 2×JAK3 working solution using pipette (Thermo, 30 μL multi-channel), Centrifuge at 1,500 rpm for 1 minute. • 5. Add 2.5 μL/well of 2×ATP-Poly(E4Y1) working mixture using pipette (Thermo, 30 μL multi-channel), Centrifuge at 1,500 rpm for 1 minute. • 6. Incubate the assay plate at 25° C. for 60 min. • 7. Add 5 μL/well ADP-GLO™ Reagent by BRAVO to stop the kinase reaction and deplete the unconsumed ATP after 1 hour. Centrifuge at 1,500 rpm for 1 minute. Incubate at 25° C. for 40 min. • 8. Add 10 uL of Kinase Detection Reagent by BRAVO to convert ADP to ATP. Centrifuge at 1,500 rpm for 1 minute. Incubate at 25° C. for 40 min. • 9. Record luminescence signal on an Envision plate reader (384-USL). • 10. Process data using XL-fit. Inhibition %=[1-(test well−Negative control)/(positive control−Negative control)]*100%. 5. Data Analysis
The percent (%) inhibition at each concentration of compound is calculated based on and relative to the signal in the Negative and Positive control wells contained within each assay plate. The Negative control wells served as 0% inhibition, and the Positive control wells served as 100% inhibition. The concentrations and % inhibition values for tested compounds are plotted and the concentration of compound required for 50% inhibition (IC50) is determined with a Three-parameter logistic dose response equation. The endpoint value (IC50) for the reference peptide/compound is evaluated in each experiment as a quality control measure. If the endpoint value was within 3-fold of the expected value then the experiment was deemed acceptable.

[2] = target: HPK1 (Homo sapiens, UniProt Q92918); test: HPK1 biochemical assay (ADP-GLO Kinase Assay)
Excerpt: IC50 values of any compounds can be determined accordingly over a range of inhibitor concentrations. In addition, the inhibitory effect of the compounds can also be assess using a biological assay, to determine the effect of the compounds on cytokine secretion by T cells following TCR and CD28 stimulation.
Biology Example 1 HPK1 Biochemical Assay
This example used the ADP-GLO™ Kinase Assay to measure the effect of potential HPK1 inhibitor compounds on HPK1 kinase activity.
The ADP-GLO™ Kinase Assay (Promega Corp., Madison, WI) measures ADP formed from a kinase reaction. According to the manufacture, the ADP formed in a kinase assay is first converted into ATP, which is then used to generate light in a luciferase reaction. The luminescence generated correlates with kinase activity. An exemplary experimental setting is described below, though minor adjustments can be made in individual assays.
Serial 3-fold dilution of compounds from 10 μM (top concentration) to 0.508 nM (lowest concentration). Positive control is 10 μM Reference+enzyme+substrate. Negative control is 1% DMSO+enzyme+substrate.
• 1. Buffer Preparation • 40 mM Tris pH7.5; 20 mM MgCl2, 0.1 mg/ml BSA, 50 μM DTT Buffer Stock
Add 20 mL 1M Tris and 10 mL 1M MgCl2 to 470 mL ddH2O to get buffer stock, and stock at RT. • 2. Preparing Fresh 1* Assay Buffer
• 3. Compounds Preparation • 1) The compounds were diluted to 1 mM, by mixing 10 μL of 10 mM respective compound stocks with 90 μL of DMSO. • 2) The compounds were then diluted 3-fold for 10 doses (5 μL to 10 μL dilution) by BRAVO. The top compound conc. was 1 mM (100×), DMSO Conc. was 100%. • 3) Transfer 100 nL of each diluted compound sample to 384-well plate (Corning-4512) by ECHO. • 4) Centrifuge the plate at 1,500 rpm for 1 minute. • 4. Preparation of 2×ATP-MBP Mixture: • 20 μM ATP, 0.2 μg/μL MBP in Kinase Buffer (final concentration: 10 μM ATP, 0.1 MBP)
• 5. Preparation of 2×HPK1 working solution with assay buffer. • HPK1 final concentration was 0.6 ng/μL. […] Incubate at 25° C. for 40 min. • 11. Record luminescence signal on an Envision plate reader (384-CTG). 5. Data Analysis
The percent (%) inhibition at each concentration of compound is calculated based on and relative to the signal in the High and Low control wells contained within each assay plate. […] The concentrations and % inhibition values for tested compounds were plotted and the concentration of compound required for 50% inhibition (IC50) was determined with a Three-parameter logistic dose response equation. The endpoint value (IC50) for the reference peptide/compound was evaluated in each experiment as a quality control measure. If the endpoint value was within 3-fold of the expected value, then the experiment was deemed acceptable.

[3] = B*: testing performed in a first testing facility, read-out: JAK3 IC50 (nM) Relative, B*
[4] = B*: testing performed in a first testing facility, read-out: HPK1 IC50 (nM) Relative, B*
[5] = N*: testing performed in a second testing facility, read-out: JAK3 IC50 (nM) Relative, N*
[6] = N*: testing performed in a second testing facility, read-out: HPK1 IC50 (nM) Relative, N*

T1 sequence (P52333 781-1124 limits assumed): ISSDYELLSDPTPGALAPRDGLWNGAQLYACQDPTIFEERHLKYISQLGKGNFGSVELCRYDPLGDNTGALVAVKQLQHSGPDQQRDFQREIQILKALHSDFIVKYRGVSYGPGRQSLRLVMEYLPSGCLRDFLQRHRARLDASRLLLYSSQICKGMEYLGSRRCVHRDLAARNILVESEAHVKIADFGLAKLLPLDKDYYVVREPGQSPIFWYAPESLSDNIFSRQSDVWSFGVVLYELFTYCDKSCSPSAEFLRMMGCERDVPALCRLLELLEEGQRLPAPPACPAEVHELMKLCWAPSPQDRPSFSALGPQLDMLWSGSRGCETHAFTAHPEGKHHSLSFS
Sequence of HPK1 (Q92918 whole entry): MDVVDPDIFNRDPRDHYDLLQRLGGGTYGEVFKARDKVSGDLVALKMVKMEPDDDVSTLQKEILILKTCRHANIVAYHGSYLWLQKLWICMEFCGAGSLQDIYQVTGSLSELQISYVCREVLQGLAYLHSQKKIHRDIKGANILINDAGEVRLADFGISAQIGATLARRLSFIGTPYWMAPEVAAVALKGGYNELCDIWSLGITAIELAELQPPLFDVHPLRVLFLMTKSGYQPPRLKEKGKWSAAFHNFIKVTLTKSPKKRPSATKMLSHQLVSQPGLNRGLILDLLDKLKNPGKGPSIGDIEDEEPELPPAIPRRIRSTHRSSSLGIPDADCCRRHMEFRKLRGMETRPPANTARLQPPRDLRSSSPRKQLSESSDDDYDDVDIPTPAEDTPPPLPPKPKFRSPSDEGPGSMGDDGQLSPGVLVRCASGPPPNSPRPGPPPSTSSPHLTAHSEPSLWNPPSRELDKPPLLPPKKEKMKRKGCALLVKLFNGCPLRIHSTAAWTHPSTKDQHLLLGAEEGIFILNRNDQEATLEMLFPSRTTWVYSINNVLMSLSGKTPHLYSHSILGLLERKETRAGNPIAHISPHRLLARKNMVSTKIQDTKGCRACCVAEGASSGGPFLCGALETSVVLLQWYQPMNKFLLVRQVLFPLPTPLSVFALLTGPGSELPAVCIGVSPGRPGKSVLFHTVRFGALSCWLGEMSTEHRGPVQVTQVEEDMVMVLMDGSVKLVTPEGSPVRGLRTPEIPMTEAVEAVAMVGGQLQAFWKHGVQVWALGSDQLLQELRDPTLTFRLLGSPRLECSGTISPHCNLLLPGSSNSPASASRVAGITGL

Structure (SMILES) | IC50 [1, 3] [nM] | JAKs/HPK1 IC50 Ratio, B* [1] | IC50 [2, 4] [nM] | IC50 [1, 5] [nM] | JAKs/HPK1 IC50 Ratio, N* [1] | IC50 [2, 6] [nM]
COc1cc2c(cc1Nc1ncc(Cl)c(N3CC(C(=O)O)c4ccccc43)n1)CN(C)CC2 (single isomer, unassigned) [Example 95] | > 1000 | 150 | ≤ 100 |  |  | 
COc1cc2c(cc1Nc1ncc(Cl)c(N3CCCc4ccccc43)n1)CN(C)CC2 [Example 6, N-(5-chloro-4-(3,4-dihydroquinolin-1(2H)-yl)pyrimidin-2-yl)-6-methoxy-2-methyl-1,2,3,4-tetrahydroisoquinolin-7-amine] | > 1000 |  | ≤ 100 |  |  | 
COc1cc2c(cc1Nc1ncc(Cl)c(N3CCOc4ccccc43)n1)CN(C)CC2 [Example 7, N-(5-chloro-4-(2,3-dihydro-4H-benzo[b][1,4]oxazin-4-yl)pyrimidin-2-yl)-6-methoxy-2-methyl-1,2,3,4-tetrahydroisoquinolin-7-amine] | > 1000 | >118 | ≤ 100 |  |  | 
COc1cc2c(cc1Nc1ncc(Cl)c(N3CCn4c3cccc4=O)n1)CN(C)CC2 [Example 31] | > 1000 | 31 | 100 to 500 |  |  | 
COc1cc2c(cc1Nc1ncc3ccn(-c4ccccc4C(=O)N(C)C)c3n1)CN(C)CC2 [Example 38] |  |  | 100 to 500 | > 1000 | >163 | ≤ 100
COc1cc2c(cc1Nc1ncc3ccn(-c4ccccc4P(C)(C)=O)c3n1)CN(C)CC2 [Example 39, (2-(2-((6-Methoxy-2-methyl-1,2,3,4-tetrahydroisoquinolin-7-yl)amino)-7H-pyrrolo[2,3-d]pyrimidin-7-yl)phenyl)dimethylphosphine oxide] | > 1000 | >18 | 500 to 1000 |  |  | 
COc1cc2c(cc1Nc1ncc3ccn(-c4cccnc4C)c3n1)CN(C)CC2 [Example 41, 6-Methoxy-2-methyl-N-(7-(2-methylpyridin-3-yl)-7H-pyrrolo[2,3-d]pyrimidin-2-yl)-1,2,3,4-tetrahydroisoquinolin-7-amine] | 100 to 500 | 30 | ≤ 100 |  |  | 
COc1cc2c(cc1Nc1ncc3ncn(-c4ccccc4)c3n1)CN(C)CC2 [Example 43, 6-Methoxy-2-methyl-N-(9-phenyl-9H-purin-2-yl)-1,2,3,4-tetrahydroisoquinolin-7-amine] |  |  | > 1000 | > 1000 | >10 | > 1000
COc1cc2c(cc1Nc1ncc3ncn(-c4ccccc4C(=O)N(C)C)c3n1)CN(C)CC2 [Example 44, 2-(2-((6-Methoxy-2-methyl-1,2,3,4-tetrahydroisoquinolin-7-yl)amino)-9H-purin-9-yl)-N,N-dimethylbenzamide] |  |  | > 1000 | > 1000 | >10 | > 1000
COc1cc2c(cc1Nc1ncc3c(n1)N(c1ccccc1P(C)(C)=O)CCO3)CN(C)CC2 [Example 47, (2-(2-((6-Methoxy-2-methyl-1,2,3,4-tetrahydroisoquinolin-7-yl)amino)-6H-pyrimido[5,4-b][1,4]oxazin-8(7H)-yl)phenyl)dimethylphosphine oxide] | > 1000 | >22 | 100 to 500 |  |  | 
COc1cc2c(cc1Nc1ncc(Cl)c(-c3cncc4ccccc34)n1)CN(C)CC2 [Example 48, N-(5-chloro-4-(isoquinolin-4-yl)pyrimidin-2-yl)-6-methoxy-2-methyl-1,2,3,4-tetrahydroisoquinolin-7-amine] | > 1000 | >179 | ≤ 100 |  |  | 
CCc1c[nH]c2ncc(-c3ccc(C)c(P(C)(C)=O)c3)cc12 [Example 50, (5-(3-Ethyl-1H-pyrrolo[2,3-b]pyridin-5-yl)-2-methylphenyl)dimethylphosphine oxide] | > 1000 | 163 | ≤ 100 | > 1000 | 101 | ≤ 100

Reference: patent US12612424B2, “HPK1 inhibitors and uses thereof” (Regor Pharmaceuticals, Inc., priority 2019, dated 2026)
